Measurements reported in publication PMC8879107, “A3 Adenosine Receptor Antagonists with Nucleoside Structures and Their Anticancer Activity” (Pharmaceuticals, 2022).

Key:
human A3AR [1] = biological target: T1, human A3AR (Homo sapiens, UniProt P0DMS8); test: Radioligand binding assay, displacement of [3H]HEMADO in CHO cell membranes; conditions: for A1/A3: A3AR selectivity vs A1AR; for A1/A3 / A2A/A3: ratio of Ki values; for A2A/A3: A3AR selectivity vs A2AAR; for Ki: [3H]HEMADO, CHO membranes, mean ± S.E., n = 3-5, read-out: hA3R (Ki nM)
T1 sequence (P0DMS8 1-318): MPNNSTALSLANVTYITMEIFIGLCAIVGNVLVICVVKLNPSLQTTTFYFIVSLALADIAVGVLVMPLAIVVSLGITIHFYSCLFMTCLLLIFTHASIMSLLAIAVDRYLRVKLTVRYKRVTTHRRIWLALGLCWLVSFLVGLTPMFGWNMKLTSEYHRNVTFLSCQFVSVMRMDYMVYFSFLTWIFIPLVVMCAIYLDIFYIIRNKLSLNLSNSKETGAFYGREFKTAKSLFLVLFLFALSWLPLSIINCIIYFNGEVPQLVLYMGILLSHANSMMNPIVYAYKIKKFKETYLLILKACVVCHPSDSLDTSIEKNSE
Protocol: In the case of A2BAR, the potency of selected compounds was determined through a functional GloSensor cAMP assay.
(§1) All pharmacological methods followed the procedures as described earlier. In brief, membranes for radioligand binding were prepared from CHO cells stably transfected with human adenosine receptor subtypes through two centrifugations at different speeds. The first low-speed (1000 g) centrifugation allowed the removing of cell fragments and nuclei, while the second, performed at high speed (100,000 g), allowed the precipitation of the crude membrane fractions.
(§2) The binding affinity of the novel compounds was evaluated using radioligand competition experiments in CHO cells stably expressing hA1AR, hA2AAR, and hA3AR subtypes. […] Results were expressed as Ki values (dissociation constants), which were calculated with the program GraphPad (GraphPAD Software, San Diego, CA, USA). Each concentration was tested three–five times in duplicate and the values are given as the mean ± standard error (S.E.).

[2] = test system: PC3 prostate cancer cell line; test: Sulforhodamine B (SRB) cell growth inhibition assay; conditions: for GI50 / CC50 / IC100: Homo sapiens, 48 h; for CC50: read-out: LC50 (μM); for IC100: read-out: TGI (μM); for TGI: PC3, 48 h, concentration to inhibit 100% of cell growth, mean ± SD
human recombinant A1AR = biological target: T2, human recombinant A1AR (Homo sapiens, UniProt P30542); test: Radioligand binding assay, displacement of [3H]CCPA in CHO cell membranes; conditions: mean ± S.E., n = 3-5, read-out: hA1R (Ki nM)
T2 sequence (P30542 1-326): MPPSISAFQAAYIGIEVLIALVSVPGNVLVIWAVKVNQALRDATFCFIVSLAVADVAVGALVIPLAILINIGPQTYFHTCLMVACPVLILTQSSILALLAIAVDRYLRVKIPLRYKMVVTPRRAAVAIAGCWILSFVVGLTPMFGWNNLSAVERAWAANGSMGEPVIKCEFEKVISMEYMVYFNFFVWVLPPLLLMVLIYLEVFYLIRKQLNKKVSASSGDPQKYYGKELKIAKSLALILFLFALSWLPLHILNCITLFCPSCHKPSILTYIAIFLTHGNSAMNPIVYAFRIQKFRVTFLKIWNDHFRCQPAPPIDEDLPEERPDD
Protocol: (§3) [^3H]CCPA (2-chloro-N^6-cyclopentylAdo), [^3H]NECA (5′-N-ethylcarboxamidoAdo), and [^3H]HEMADO (2-hexynyl-N^6-methylAdo) were used as respective radioligands. The results are reported as Ki values in nM (± standard errors) (Table 1). In the case of A2BAR, the potency of selected compounds was determined through a functional GloSensor cAMP assay.
as §1, §2

human recombinant A2AAR = human recombinant A2AAR (Homo sapiens, UniProt P29274); test: Radioligand binding assay, displacement of [3H]NECA in CHO cell membranes; conditions: mean ± S.E., n = 3-5, read-out: hA2AR (Ki nM)
Protocol: as §3, §1, §2

[3] = test system: hepatocellular carcinoma and moderate hepatic dysfunction; set-up: method as in PMID 33430312; conditions: cited from earlier work
[4] = test system: human prostate (PC3), colon (Caco-2) and hepatocyte (Hep G2) carcinomas; set-up: method as in PMID 29763615; conditions: all three tumor cell lines PC3, Caco-2, Hep G2; cited from earlier work
human A3AR [5] = biological target: T1, human A3AR; test: GloSensor cAMP accumulation assay (agonism/antagonism) at A3AR in CHO cells; type: cell-based; set-up: expressed in transfected cells; host or cells: CHO cells stably expressing A3AR and the GloSensor biosensor plasmid
Protocol: CHO cells stable expressing A2B or A3ARs and the plasmid encoding the biosensor were used to study functional agonism and antagonism of understudy ligands. The desired cell number was incubated in equilibration medium containing a 3% v/v GloSensor cAMP reagent stock solution, 10% FBS and 87% of CO2 independent media. After 2 h of incubation, cells were dispensed in wells of 384 well plate and when a steady-state basal signal was obtained the agonism profile was studied, adding to wells the reference agonist NECA or compounds at different concentrations. In the case of the Gi coupled receptor A3AR Forskolin (FSK) 10 μM was added 10 min after the agonists and various luminescence readings were performed at different incubation times.
The antagonist profile of the compounds was evaluated by assessing their ability to counteract an agonist-induced increase or decrease (A2B and A3ARs, respectively) of cAMP accumulation. The cells were incubated with different antagonist concentrations and then treated with a fixed dose of NECA (10 μM for A2BAR and 1 μM for A3AR). FSK 10 μM was added 10 min after the agonists and various luminescence reads were performed at different incubation times.
Responses were expressed as percentage of the maximal relative luminescence units (RLU) and concentration–response curves were fitted by a nonlinear regression with the Prism program (GraphPAD Software, San Diego, CA, USA). The agonist or antagonist profile of compounds was expressed as EC50 or IC50, respectively. Each concentration was tested three–five times in duplicate and the values are given as the mean ± S.E.

Chain of human recombinant A2AAR (P29274 whole entry): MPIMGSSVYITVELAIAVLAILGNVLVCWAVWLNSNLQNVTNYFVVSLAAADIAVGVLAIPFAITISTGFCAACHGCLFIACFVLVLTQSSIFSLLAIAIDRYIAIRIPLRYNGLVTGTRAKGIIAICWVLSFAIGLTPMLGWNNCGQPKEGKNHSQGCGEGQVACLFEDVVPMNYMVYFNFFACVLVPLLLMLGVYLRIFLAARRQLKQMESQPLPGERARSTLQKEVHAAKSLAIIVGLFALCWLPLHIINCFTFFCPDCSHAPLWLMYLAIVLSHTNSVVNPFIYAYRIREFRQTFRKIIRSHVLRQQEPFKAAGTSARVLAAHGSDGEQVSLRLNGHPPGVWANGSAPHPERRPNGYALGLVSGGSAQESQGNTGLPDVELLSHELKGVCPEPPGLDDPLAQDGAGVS

Compound	A1/A3 (human A3AR [1]) [fold]	A2A/A3 (human A3AR [1]) [fold]	Ki (human A3AR [1]) [nM]	GI50 [2] [nM]	CC50 [2] [µM]	IC100 [2] [µM]	TGI [2] [nM]	Ki (human recombinant A1AR) [nM]	Ki (human recombinant A2AAR) [nM]	primary end-point of phase II trial [3]	safety profile in phase II trial [3]	anticancer effect (cell growth inhibition) [4]	IC50 (human A3AR [5]; antagonism: counteracting agonist (NECA 1 μM) induced decrease of cAMP, forskolin 10 μM, mean ± S.E.) [nM]	functional behaviour at A3AR (agonist/antagonist) (human A3AR [5]; forskolin 10 µM stimulated cAMP, compared to Cl-IB-MECA)
OC[C@H]1O[C@@H](n2cnc3c(NCC(c4ccccc4)c4ccccc4)nc(Cl)nc32)[C@H](O)[C@@H]1O [Compound 16, 2-Chloro-N^6-(2,2-diphenylethyl)-adenosine]	6	2046	0.13 ± 0.01	35000 ± 3100	253 ± 11.5	94	94000 ± 4100	0.76 ± 0.2	266 ± 35	–	–	–	–	–
CNC(=O)[C@H]1O[C@@H](n2cnc3c(NCc4cccc(I)c4)nc(Cl)nc32)[C@H](O)[C@@H]1O [Cl-IB-MECA, 2-chloro-N^6-(3-iodobenzyl)adenosine-5′-N-methyluronamide, reference compound]	–	–	–	18000 ± 400	–	44	44000 ± 3300	–	–	did not meet its primary end-point	favorable safety profile	good anticancer effect	–	–
OC[C@H]1O[C@@H](n2cnc3c(NCC(c4ccccc4)c4ccccc4)nc(C#Cc4ccccc4)nc32)[C@H](O)[C@@H]1O [Compound 12, N^6-(2,2-Diphenylethyl)-2-phenylethynyladenosine]	2	4	106 ± 25	14000 ± 900	59 ± 10.1	29	29000 ± 4900	211 ± 53	450 ± 84	–	–	–	153 ± 12	antagonists
OC[C@H]1O[C@@H](n2cnc3c(NCCc4ccccc4)nc(SCCc4ccccc4)nc32)[C@H](O)[C@@H]1O [Compound 13, N^6-(2-Phenylethyl)-2-phenylethylthioadenosine]	9	112	30 ± 7.1	41000 ± 4200	> 500	> 500	>500000	263 ± 19	3360 ± 752	–	–	–	–	–
OC[C@H]1O[C@@H](n2cnc3c(NCC(c4ccccc4)c4ccccc4)nc(I)nc32)[C@H](O)[C@@H]1O [Compound 9, 2-Iodo-N^6-(2,2-diphenylethyl)adenosine]	17	113	11 ± 1.8	24000 ± 1200	94 ± 3.5	48	48000 ± 3500	182 ± 25.4	1240 ± 253	–	–	–	–	–
